{
  "source": "patent US12195427B2",
  "about": "“MASP-2 inhibitors and methods of use” (priority 2018, dated 2025)",
  "molecular_target": "MASP-2 CCP2-SP (Homo sapiens (Human), UniProt O00187)",
  "sequence (O00187 445-686)": "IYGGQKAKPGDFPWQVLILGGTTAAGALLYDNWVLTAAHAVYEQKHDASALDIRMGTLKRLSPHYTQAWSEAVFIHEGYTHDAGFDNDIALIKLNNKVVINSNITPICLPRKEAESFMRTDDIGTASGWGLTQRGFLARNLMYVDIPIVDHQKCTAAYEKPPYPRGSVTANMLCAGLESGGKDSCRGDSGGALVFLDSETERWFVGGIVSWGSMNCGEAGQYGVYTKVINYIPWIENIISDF",
  "sequence (O00187 364-432 partner)": "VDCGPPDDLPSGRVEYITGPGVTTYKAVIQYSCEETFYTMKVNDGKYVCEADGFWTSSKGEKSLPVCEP",
  "test": "MASP-2 co-crystallization, X-ray crystallography and structure analysis (H-bonds, van der Waals contacts);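 on Ligand-pharmacophore element distance, pharmacophore element C2: distance from averaged pharmacophore element to bound ligand; missing value means element absent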;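 on Ligand-pharmacophore element distance, pharmacophore element C3: distance from averaged pharmacophore element to bound ligand; missing value means element absent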;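 on Ligand-pharmacophore element distance, pharmacophore element C4: distance from averaged pharmacophore element to bound ligand; missing value means element absent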;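 on Ligand-pharmacophore element distance, pharmacophore element C5: distance from averaged pharmacophore element to bound ligand; missing value means element absent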",
  "parameters": "van der Waals contact distance, MASP-2 HIS 483 atom CD2 / van der Waals contact distance, MASP-2 HIS 483 atom NE2 / van der Waals contact distance, SER 654 C to compound atom / van der Waals contact distance, SER 654 O to compound atom / van der Waals contact distance, TRP 655 C to compound atom / van der Waals contact distance, MASP-2 GLY 528 atom CA / van der Waals contact distance TRP 655 atom CZ3 / van der Waals contact distance TRP 655 atom N / van der Waals contact distance TRP 655 atom CE3 / van der Waals contact distance GLY 656 atom C / van der Waals contact distance GLY 656 atom CA / van der Waals contact distance GLY 656 atom O / van der Waals contact distance, MASP-2 TYR 607 atom CD1 / van der Waals contact distance, MASP-2 PRO 606 atom O / d(C3,CA1) / d(CA1,N1)2 / d(H4,O1) / d(H4,O2) / d(O1,O2) / d(CA1,O2) / d(CA6,O1) / d(CA6,O2) / d(CA1,C5) / d(O2,H3) / d(N2,C2) / d(CA5,N2) / d(N2,C4) / d(N2,C6) / d(N2,CA3) / d(N2,O3) / d(O4,H2): unit not given beside the values",
  "details": "for H-bond distance to MASP-2 GLY 656 atom N: GLY 656 N; for H-bond distance to MASP-2 GLY 656 atom O: GLY 656 O; for H-bond distance to MASP-2 SER 654 atom O: SER 654 O; for H-bond distance to MASP-2 SER 657 atom O: SER 657 O; for van der Waals contact distance, MASP-2 HIS 483 atom CD2 / van der Waals contact distance, MASP-2 HIS 483 atom NE2: Table A2-1",
  "summary_of_the_method": "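Human MASP-2 CCP2-SP, untagged or 6His-tagged, was expressed in E. coli and crystallized. Crystals were soaked with inhibitor in crystallization solution, flash-cooled in liquid nitrogen, and diffracted with synchrotron X-rays (wavelength 1.0). Structures were solved by molecular replacement from 1Q3X and partially refined.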",
  "key": {"[1]": {"details": "Table A5-1 pharmacophore: distance between elements, S2/S1 region"}, "[2]": {"details": "Table A5-2 pharmacophore distance, S3/S4 region"}, "[3]": {"details": "Table A7-1, between pharmacophore elements of the bound compound"}, "[4]": {"details": "Table A7-2, between pharmacophore elements of the bound compound"}},
  "note": "Structures can show the parent of a compound that is named as a salt.",
  "data": [
    {"smiles": "Cc1nc(N)ccc1CNC(=O)[C@H](C)NC(=O)[C@H]1C[C@H](Cc2cc(Cl)cc(Cl)c2)CN1", "note": "[compound 1435, (2R,4S)—N—((S)-1-(((6-Amino-2-methylpyridin-3-yl)methyl)amino)-1-oxopropan-2-yl)-4-(3,5-dichlorobenzyl)pyrrolidine-2-carboxamide Dihydrochloride]", "values": [
      {"measurement": "H-bond distance to MASP-2 ASP 627 atom OD2", "setting": "Table A1 (H-Bonds), ASP 627 OD2", "result": 3.32},
      {"measurement": "H-bond distance to MASP-2 GLY 656 atom N", "setting": "Table A1 (H-Bonds)", "result": 3.26},
      {"measurement": "H-bond distance to MASP-2 GLY 656 atom O", "setting": "Table A1 (H-Bonds)", "result": 2.79},
      {"measurement": "H-bond distance to MASP-2 SER 654 atom O", "setting": "Table A1 (H-Bonds)", "result": 3.01},
      {"measurement": "H-bond distance to MASP-2 SER 657 atom O", "setting": "Table A1 (H-Bonds)", "result": 2.84},
      {"measurement": "van der Waals contact distance, MASP-2 amino acid atom to compound atom", "setting": "Table A2", "result": 3.83},
      {"measurement": "van der Waals contact distance, MASP-2 HIS 483 atom CD2", "result": 3.7},
      {"measurement": "van der Waals contact distance, MASP-2 HIS 483 atom NE2", "result": 3.6},
      {"measurement": "van der Waals contact distance, MASP-2 PHE 529 atom CD2", "setting": "Table A2-3", "result": 3.61},
      {"measurement": "van der Waals contact distance, MASP-2 amino acid atom to compound atom", "setting": "Table A2-7: SER 628 (CB, O, OG)", "result": 3.67},
      {"measurement": "van der Waals contact distance, TRP 655 CA to compound atom", "setting": "Table A2-12", "result": 3.41},
      {"measurement": "Ligand-pharmacophore element distance, pharmacophore element C2", "setting": "Table A4-1, element C2", "result": 0},
      {"measurement": "Ligand-pharmacophore element distance, pharmacophore element C3", "setting": "Table A4-1, element C3", "result": 0.15},
      {"measurement": "Ligand-pharmacophore element distance, pharmacophore element C4", "setting": "Table A4-1, element C4", "result": 1.37},
      {"measurement": "Ligand-pharmacophore element distance, pharmacophore element C5", "setting": "Table A4-1, element C5", "result": 0},
      {"measurement": "Ligand-pharmacophore element distance, pharmacophore element C6", "setting": "Table A4-1, element C6", "result": 0.38},
      {"measurement": "Ligand-pharmacophore element distance, pharmacophore element C7", "setting": "Table A4-1, element C7", "result": 0},
      {"measurement": "Ligand-pharmacophore element distance, pharmacophore element CA1", "setting": "Table A4-1, element CA1", "result": 0.6},
      {"measurement": "Ligand-pharmacophore element distance, pharmacophore element CA2", "setting": "Table A4-1, element CA2", "result": 0.8},
      {"measurement": "Ligand-pharmacophore element distance, pharmacophore element CA3", "setting": "Table A4-1, element CA3", "result": 0},
      {"measurement": "Ligand-pharmacophore element distance, pharmacophore element CA4", "setting": "Table A4-1, element CA4", "result": 0},
      {"measurement": "Ligand-pharmacophore element distance, pharmacophore element CA5", "setting": "Table A4-1, element CA5", "result": 0},
      {"measurement": "Ligand-pharmacophore element distance, pharmacophore element CA6", "setting": "Table A4-1, element CA6", "result": 0},
      {"measurement": "d(C3,CA1)", "setting": "[1]", "result": 2.85},
      {"measurement": "d(CA1,N1)2", "setting": "[1]", "result": 1.38},
      {"measurement": "d(CA1,O1)", "setting": "[1]", "result": 4.36},
      {"measurement": "d(CA1,O2)", "setting": "[1]", "result": 3.86},
      {"measurement": "d(H4,O1)", "setting": "[1]", "result": 4.37},
      {"measurement": "d(H4,O2)", "setting": "[1]", "result": 3.79},
      {"measurement": "d(O1,O2)", "setting": "[1]", "result": 3.37},
      {"measurement": "d(N2,C4)", "setting": "[2]", "result": 8.24},
      {"measurement": "d(N2,C4)4", "setting": "[2]", "result": 8.24},
      {"measurement": "d(N2,C6)", "setting": "[2]", "result": 7.51},
      {"measurement": "d(N2,CA2)", "setting": "[2]", "result": 6.00},
      {"measurement": "d(O2,H3)", "setting": "[2]", "result": 4.33},
      {"measurement": "d(O2,N2)", "setting": "[2]", "result": 2.62},
      {"measurement": "a(C3, CA1, O1)", "setting": "Table A6-1 pharmacophore angle", "result": 149.49},
      {"measurement": "a(CA1, O1, O2)", "setting": "Table A6-1 pharmacophore angle", "result": 106.19},
      {"measurement": "a(O1, O2, H4)", "setting": "Table A6-1 pharmacophore angle", "result": 131.96},
      {"measurement": "a(N1, CA1, O1) b)", "setting": "Table A6-1 pharmacophore angle, Methyl-amino-pyridine compounds", "result": 173.74},
      {"measurement": "a(O1, O2, H3)", "setting": "Table A6-2 pharmacophore angle", "result": 147.24},
      {"measurement": "a(O1, O2, N2)", "setting": "Table A6-2 pharmacophore angle", "result": 139.75},
      {"measurement": "a(O2, N2, C4)", "setting": "Table A6-2 pharmacophore angle", "result": 164.21},
      {"measurement": "a(O2, N2, C4) 2", "setting": "Table A6-2 pharmacophore angle", "result": 121.06},
      {"measurement": "a(O2, N2, C6)", "setting": "Table A6-2 pharmacophore angle", "result": 99.38},
      {"measurement": "a(O2, N2, CA2)", "setting": "Table A6-2 pharmacophore angle", "result": 157.86},
      {"measurement": "Pharmacophore torsion angle a(C3, CA1, O1, H4)", "setting": "[3]", "result": 24.44},
      {"measurement": "Pharmacophore torsion angle a(H4, O1, O2, H3)", "setting": "[3]", "result": 51.39},
      {"measurement": "Pharmacophore torsion angle a(H4, O1, O2, N2)", "setting": "[3]", "result": 136.22},
      {"measurement": "Pharmacophore torsion angle a(N1, CA1, O1, H4)", "setting": "[3]", "result": 1.43},
      {"measurement": "Pharmacophore torsion angle a(O1, H4, O2, CA1)", "setting": "[3]", "result": "−83.48"},
      {"measurement": "Pharmacophore torsion angle a(O1, O2, N2, C6)", "setting": "[4]", "result": 137.30},
      {"measurement": "Pharmacophore torsion angle a(O1, O2, N2, CA2)", "setting": "[4]", "result": 123.48}
    ]},
    {"smiles": "CC(=O)Nc1ccc(CCN[C@H](CCc2ccccc2)C(=O)N[C@@H](C)C(=O)NCc2ccc(C(=N)N)cc2)cc1", "note": "[compound 1345, (R)-2-((4-acetamidophenethyl)amino)-N—((S)-1-((4-carbamimidoylbenzyl)amino)-1-oxopropan-2-yl)-4-phenylbutanamide]", "values": [
      {"measurement": "H-bond distance to MASP-2 ARG 630 atom NH1 (second bond)", "setting": "Table A1 (H-Bonds), ARG 630 NH1", "result": 2.37},
      {"measurement": "H-bond distance to MASP-2 GLN 665 atom OE1", "setting": "Table A1 (H-Bonds), GLN 665 OE1", "result": 2.63},
      {"measurement": "H-bond distance to MASP-2 GLY 656 atom N", "setting": "Table A1 (H-Bonds)", "result": 3.05},
      {"measurement": "H-bond distance to MASP-2 GLY 656 atom O", "setting": "Table A1 (H-Bonds)", "result": 3.13},
      {"measurement": "H-bond distance to MASP-2 SER 628 atom O", "setting": "Table A1 (H-Bonds), SER 628 O", "result": 2.64},
      {"measurement": "H-bond distance to MASP-2 SER 654 atom O", "setting": "Table A1 (H-Bonds)", "result": 3.02},
      {"measurement": "H-bond distance to MASP-2 SER 657 atom O", "setting": "Table A1 (H-Bonds)", "result": 3.01},
      {"measurement": "van der Waals contact distance, MASP-2 HIS 483 atom CD2", "result": 3.69},
      {"measurement": "van der Waals contact distance, MASP-2 HIS 483 atom NE2", "result": 3.37},
      {"measurement": "van der Waals contact distance, MASP-2 PHE 529 atom CZ", "setting": "Table A2-3", "result": 3.88},
      {"measurement": "van der Waals contact distance, MASP-2 amino acid atom to compound atom", "setting": "Table A2-9, ARG 630, AA atoms CG, CZ", "result": 3.52},
      {"measurement": "van der Waals contact distance, SER 654 C to compound atom", "setting": "Table A2-11", "result": 3.84},
      {"measurement": "van der Waals contact distance, SER 654 O to compound atom", "setting": "Table A2-12", "result": 3.75},
      {"measurement": "van der Waals contact distance GLY 656 atom C", "setting": "Table A2-13, MASP-2 GLY 656 C", "result": 3.74}
    ]}
  ]
}
